In ChEMBL document CHEMBL1201862, “PubChem BioAssay data set” (2004):
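These data come from cells grown in 96-well plates and exposed to compound for 48 hours at five concentrations. At the GI50, growth is halved.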 Active and inactive are the calls of the source. No stated cut-off is given here; in the data, active = GI50 up to about 1.1 µM and inactive = higher.

Tests used:
Assay in all cases: DTP human tumour cell line panel, 48 h
COLO 205 = tested on: COLO 205
DMS-114 = tested on: DMS-114
EKVX = tested on: EKVX
HOP-62 = tested on: HOP-62
HOP-92 = tested on: HOP-92
NCI-H460 = tested on: NCI-H460
NCI-H522 = tested on: NCI-H522
OVCAR-5 = tested on: OVCAR-5
OVCAR-8 = tested on: OVCAR-8
SF-268 = tested on: SF-268
SF-295 = tested on: SF-295
SK-MEL-5 = tested on: SK-MEL-5
SN12C = tested on: SN12C
SW-620 = tested on: SW-620
UACC-257 = tested on: UACC-257
UO-31 = tested on: UO-31
HCT-15 = tested on: HCT-15
OVCAR-3 = tested on: OVCAR-3

Structure (SMILES) | GI50 (COLO 205) | GI50 (DMS-114) | GI50 (EKVX) | GI50 (HOP-62) | GI50 (HOP-92) | GI50 (NCI-H460) | GI50 (NCI-H522) | GI50 (OVCAR-5) | GI50 (OVCAR-8) | GI50 (SF-268) | GI50 (SF-295) | GI50 (SK-MEL-5) | GI50 (SN12C) | GI50 (SW-620) | GI50 (UACC-257) | GI50 (UO-31) | GI50 (HCT-15) [µM] | GI50 (OVCAR-3)
N#Cc1ccc(Cc2ccccn2)cc1Cl | > 100 µM (inactive) | > 100 µM (inactive) | > 100 µM (inactive) | > 100 µM (inactive) | > 100 µM (inactive) | > 100 µM (inactive) | > 100 µM (inactive) | > 100 µM (inactive) | > 100 µM (inactive) | > 100 µM (inactive) | > 100 µM (inactive) | > 100 µM (inactive) | > 100 µM (inactive) | > 100 µM (inactive) | > 100 µM (inactive) | > 100 µM (inactive) | – | –
CCOC(=O)C12CCCC1(O)N(NC(N)=O)C(C)=C2C(=O)OC (centres undefined) | > 100 µM (inactive) | > 100 µM (inactive) | > 100 µM (inactive) | > 100 µM (inactive) | > 100 µM (inactive) | > 100 µM (inactive) | > 100 µM (inactive) | > 100 µM (inactive) | > 100 µM (inactive) | > 100 µM (inactive) | > 100 µM (inactive) | – | > 100 µM (inactive) | > 100 µM (inactive) | > 100 µM (inactive) | > 100 µM (inactive) | > 100 | > 100 µM (inactive)
COc1ccc(C(=O)C(c2ccc(OCc3ccccc3)cc2)c2ccc(OCc3ccccc3)cc2)cc1 | > 100 µM (inactive) | > 100 µM (inactive) | > 100 µM (inactive) | > 100 µM (inactive) | > 100 µM (inactive) | > 100 µM (inactive) | > 100 µM (inactive) | > 100 µM (inactive) | > 100 µM (inactive) | > 100 µM (inactive) | > 100 µM (inactive) | > 100 µM (inactive) | > 100 µM (inactive) | > 100 µM (inactive) | – | > 100 µM (inactive) | > 100 | > 100 µM (inactive)
COC(=O)c1ccc(C=C(C#N)C#N)cc1 | 27.7 µM (inactive) | 19.2 µM (inactive) | 33.8 µM (inactive) | 27 µM (inactive) | 14.7 µM (inactive) | 83.6 µM (inactive) | 13.7 µM (inactive) | > 100 µM (inactive) | 21.9 µM (inactive) | 23 µM (inactive) | 32.4 µM (inactive) | 17.9 µM (inactive) | 19.3 µM (inactive) | 21.3 µM (inactive) | – | – | 35 | 29.4 µM (inactive)
O=C1[C@@H]2C3c4ccccc4C([C@@H]2C(=O)N1c1ccccc1)S3(=O)=O | > 100 µM (inactive) | 37.9 µM (inactive) | > 100 µM (inactive) | – | > 100 µM (inactive) | 31.1 µM (inactive) | 74.3 µM (inactive) | > 100 µM (inactive) | > 100 µM (inactive) | 38.9 µM (inactive) | 81.7 µM (inactive) | > 100 µM (inactive) | 61.5 µM (inactive) | 51.4 µM (inactive) | > 100 µM (inactive) | > 100 µM (inactive) | > 100 | > 100 µM (inactive)
COC1=CC(=O)C2(C=C1OC)OC[C@H]1Oc3c(ccc4c3C=CC(C)(C)O4)C(=O)[C@H]12 (some centres undefined) | 36.6 µM (inactive) | 25.2 µM (inactive) | 27.4 µM (inactive) | 92.7 µM (inactive) | 7.64 µM (inactive) | 49.2 µM (inactive) | 16.7 µM (inactive) | > 100 µM (inactive) | 37.5 µM (inactive) | – | – | – | – | 35 µM (inactive) | 37.8 µM (inactive) | 60.5 µM (inactive) | – | 42.4 µM (inactive)
C[N+](C)(C)CC(=O)NC(=O)N/N=C\C(CC#N)CN(Cc1ccccc1)Cc1ccccc1 (centres undefined) | > 100 µM (inactive) | > 100 µM (inactive) | > 100 µM (inactive) | > 100 µM (inactive) | – | > 100 µM (inactive) | > 100 µM (inactive) | > 100 µM (inactive) | > 100 µM (inactive) | > 100 µM (inactive) | 38 µM (inactive) | > 100 µM (inactive) | > 100 µM (inactive) | > 100 µM (inactive) | > 100 µM (inactive) | > 100 µM (inactive) | > 100 | > 100 µM (inactive)
CC1=CCC23C(C1)OC(Br)(C=CC2(C)O)C3(C)C (centres undefined) | > 100 µM (inactive) | > 100 µM (inactive) | > 100 µM (inactive) | – | > 100 µM (inactive) | > 100 µM (inactive) | – | > 100 µM (inactive) | > 100 µM (inactive) | > 100 µM (inactive) | > 100 µM (inactive) | > 100 µM (inactive) | > 100 µM (inactive) | > 100 µM (inactive) | > 100 µM (inactive) | – | – | –
O=C1[C@@H]2C(c3ccccc3Br)=NO[C@@H]2C(=O)N1c1ccc(Cc2ccc(N3C(=O)[C@H]4C(c5ccccc5Br)=NO[C@H]4C3=O)cc2)cc1 | > 100 µM (inactive) | > 100 µM (inactive) | > 100 µM (inactive) | > 100 µM (inactive) | > 100 µM (inactive) | > 100 µM (inactive) | – | > 100 µM (inactive) | > 100 µM (inactive) | > 100 µM (inactive) | > 100 µM (inactive) | > 100 µM (inactive) | > 100 µM (inactive) | > 100 µM (inactive) | > 100 µM (inactive) | 54.8 µM (inactive) | > 100 | > 100 µM (inactive)
CCn1c(C)nc([N+](=O)[O-])c1Sc1ncc[nH]1 | 27.9 µM (inactive) | 34.4 µM (inactive) | 75.7 µM (inactive) | > 100 µM (inactive) | 25.8 µM (inactive) | 66.2 µM (inactive) | 15.6 µM (inactive) | > 100 µM (inactive) | 46.1 µM (inactive) | 69.7 µM (inactive) | > 100 µM (inactive) | 48.4 µM (inactive) | 37 µM (inactive) | 48.2 µM (inactive) | 39.4 µM (inactive) | 30.5 µM (inactive) | – | 74.8 µM (inactive)
COc1ccc2c(c1)O[C@@H]1c3ccc(OC)cc3OC[C@H]21 | – | 27.5 µM (inactive) | – | 72.8 µM (inactive) | 17.1 µM (inactive) | 26.2 µM (inactive) | 15.3 µM (inactive) | 45.3 µM (inactive) | 42.1 µM (inactive) | 38.2 µM (inactive) | 26.9 µM (inactive) | 17.4 µM (inactive) | 55.2 µM (inactive) | 20.8 µM (inactive) | > 10 µM (inactive) | 30.1 µM (inactive) | 25.8 | 34 µM (inactive)
COC(=O)C1C=CCON2CCc3c(n(S(=O)(=O)c4ccccc4)c4ccccc34)C12 (centres undefined) | 33.5 µM (inactive) | 41.2 µM (inactive) | 41.5 µM (inactive) | > 39.2 µM (inactive) | > 80.7 µM (inactive) | 52.6 µM (inactive) | 26.9 µM (inactive) | > 100 µM (inactive) | 50.9 µM (inactive) | > 100 µM (inactive) | 59.4 µM (inactive) | 34.4 µM (inactive) | 60 µM (inactive) | 14.8 µM (inactive) | 50.1 µM (inactive) | 42.9 µM (inactive) | 50.8 | 33.7 µM (inactive)
